Source: ChEMBL document CHEMBL4390688, “Accelerating the discovery of DGAT1 inhibitors through the application of parallel medicinal chemistry (PMC)” (Bioorg Med Chem Lett, 2019)

Key:
[1] = tested on: Mus musculus; assay: Reduction in lipid excursion in mouse at 10 mg/kg, po QD measured at 18 hrs post dose by lipid tolerance test relative to control; assay type: functional; parameters: scale not given: the % may be the effect or the level left
[2] = target: T1, Sterol O-acyltransferase 1 (Homo sapiens, UniProt P35610)
T1 sequence (P35610 whole entry): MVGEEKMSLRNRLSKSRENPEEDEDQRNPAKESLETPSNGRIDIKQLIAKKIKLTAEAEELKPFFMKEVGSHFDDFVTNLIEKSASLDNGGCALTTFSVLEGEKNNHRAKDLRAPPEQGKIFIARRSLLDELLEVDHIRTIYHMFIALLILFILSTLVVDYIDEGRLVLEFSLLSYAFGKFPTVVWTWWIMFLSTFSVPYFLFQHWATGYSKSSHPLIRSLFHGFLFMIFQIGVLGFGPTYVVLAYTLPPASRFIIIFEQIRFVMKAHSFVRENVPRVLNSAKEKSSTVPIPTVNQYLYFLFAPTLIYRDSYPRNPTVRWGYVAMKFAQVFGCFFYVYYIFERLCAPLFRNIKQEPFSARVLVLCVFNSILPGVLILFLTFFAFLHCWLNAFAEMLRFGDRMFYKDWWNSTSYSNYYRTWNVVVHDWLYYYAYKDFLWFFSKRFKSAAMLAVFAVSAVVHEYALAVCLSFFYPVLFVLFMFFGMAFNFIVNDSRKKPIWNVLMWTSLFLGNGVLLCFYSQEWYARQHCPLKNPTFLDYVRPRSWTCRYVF
Description: Inhibition of human ACAT1

[3] = Distribution coefficient, log D of compound; assay type: physicochemical; conditions: octanol/water
[4] = target: T2, Diacylglycerol O-acyltransferase 1 (Homo sapiens, UniProt O75907)
T2 sequence (O75907 whole entry): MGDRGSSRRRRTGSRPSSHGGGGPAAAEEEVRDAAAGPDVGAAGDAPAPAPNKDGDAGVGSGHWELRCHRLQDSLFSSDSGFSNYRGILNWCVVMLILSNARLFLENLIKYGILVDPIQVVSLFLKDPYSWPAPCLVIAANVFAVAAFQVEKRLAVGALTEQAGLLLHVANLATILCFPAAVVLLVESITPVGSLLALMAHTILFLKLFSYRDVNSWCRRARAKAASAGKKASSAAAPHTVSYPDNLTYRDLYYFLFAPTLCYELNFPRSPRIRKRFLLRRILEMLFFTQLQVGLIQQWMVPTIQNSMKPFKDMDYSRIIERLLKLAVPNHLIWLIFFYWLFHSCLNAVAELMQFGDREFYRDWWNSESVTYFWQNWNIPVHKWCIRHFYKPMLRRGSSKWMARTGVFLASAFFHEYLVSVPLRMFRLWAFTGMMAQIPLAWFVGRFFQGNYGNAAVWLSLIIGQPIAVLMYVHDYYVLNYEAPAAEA
Description: Inhibition of human DGAT1

[5] = target: T3, Diacylglycerol O-acyltransferase 1 (Mus musculus, UniProt Q9Z2A7)
T3 sequence (Q9Z2A7 whole entry): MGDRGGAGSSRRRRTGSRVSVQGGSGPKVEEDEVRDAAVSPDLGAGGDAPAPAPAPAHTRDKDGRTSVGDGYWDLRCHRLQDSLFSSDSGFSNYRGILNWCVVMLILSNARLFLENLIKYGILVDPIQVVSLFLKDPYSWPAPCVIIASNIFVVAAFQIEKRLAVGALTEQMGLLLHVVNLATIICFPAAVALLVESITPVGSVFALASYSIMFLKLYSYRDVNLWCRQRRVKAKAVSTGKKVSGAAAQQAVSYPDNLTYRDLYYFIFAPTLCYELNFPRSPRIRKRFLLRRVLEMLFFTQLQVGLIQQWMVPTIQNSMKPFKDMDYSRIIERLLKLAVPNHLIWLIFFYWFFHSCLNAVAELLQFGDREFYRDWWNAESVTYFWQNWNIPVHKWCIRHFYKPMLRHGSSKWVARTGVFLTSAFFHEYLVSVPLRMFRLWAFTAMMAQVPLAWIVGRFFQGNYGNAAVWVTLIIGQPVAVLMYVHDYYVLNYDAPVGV
Description: Inhibition of mouse DGAT1

[6] = target: Voltage-gated inwardly rectifying potassium channel KCNH2 (Homo sapiens, UniProt Q12809); assay: Inhibition of human ERG
[7] = target: Adenosine receptor A2a (Homo sapiens, UniProt P29274); assay: Activity against human A2AR assessed as inhibition of cAMP accumulation by cAMP functional assay
Chain of Adenosine receptor A2a (P29274 whole entry): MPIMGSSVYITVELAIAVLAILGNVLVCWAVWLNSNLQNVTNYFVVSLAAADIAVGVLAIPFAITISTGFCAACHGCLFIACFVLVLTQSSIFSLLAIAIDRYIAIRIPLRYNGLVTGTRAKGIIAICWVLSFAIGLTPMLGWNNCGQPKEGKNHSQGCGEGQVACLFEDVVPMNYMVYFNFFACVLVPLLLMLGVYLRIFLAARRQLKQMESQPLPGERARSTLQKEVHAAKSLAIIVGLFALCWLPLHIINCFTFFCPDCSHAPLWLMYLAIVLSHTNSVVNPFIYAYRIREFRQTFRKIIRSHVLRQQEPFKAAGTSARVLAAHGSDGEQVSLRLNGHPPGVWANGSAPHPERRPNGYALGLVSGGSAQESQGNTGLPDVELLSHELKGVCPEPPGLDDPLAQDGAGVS

Chain of Voltage-gated inwardly rectifying potassium channel KCNH2 (Q12809 whole entry): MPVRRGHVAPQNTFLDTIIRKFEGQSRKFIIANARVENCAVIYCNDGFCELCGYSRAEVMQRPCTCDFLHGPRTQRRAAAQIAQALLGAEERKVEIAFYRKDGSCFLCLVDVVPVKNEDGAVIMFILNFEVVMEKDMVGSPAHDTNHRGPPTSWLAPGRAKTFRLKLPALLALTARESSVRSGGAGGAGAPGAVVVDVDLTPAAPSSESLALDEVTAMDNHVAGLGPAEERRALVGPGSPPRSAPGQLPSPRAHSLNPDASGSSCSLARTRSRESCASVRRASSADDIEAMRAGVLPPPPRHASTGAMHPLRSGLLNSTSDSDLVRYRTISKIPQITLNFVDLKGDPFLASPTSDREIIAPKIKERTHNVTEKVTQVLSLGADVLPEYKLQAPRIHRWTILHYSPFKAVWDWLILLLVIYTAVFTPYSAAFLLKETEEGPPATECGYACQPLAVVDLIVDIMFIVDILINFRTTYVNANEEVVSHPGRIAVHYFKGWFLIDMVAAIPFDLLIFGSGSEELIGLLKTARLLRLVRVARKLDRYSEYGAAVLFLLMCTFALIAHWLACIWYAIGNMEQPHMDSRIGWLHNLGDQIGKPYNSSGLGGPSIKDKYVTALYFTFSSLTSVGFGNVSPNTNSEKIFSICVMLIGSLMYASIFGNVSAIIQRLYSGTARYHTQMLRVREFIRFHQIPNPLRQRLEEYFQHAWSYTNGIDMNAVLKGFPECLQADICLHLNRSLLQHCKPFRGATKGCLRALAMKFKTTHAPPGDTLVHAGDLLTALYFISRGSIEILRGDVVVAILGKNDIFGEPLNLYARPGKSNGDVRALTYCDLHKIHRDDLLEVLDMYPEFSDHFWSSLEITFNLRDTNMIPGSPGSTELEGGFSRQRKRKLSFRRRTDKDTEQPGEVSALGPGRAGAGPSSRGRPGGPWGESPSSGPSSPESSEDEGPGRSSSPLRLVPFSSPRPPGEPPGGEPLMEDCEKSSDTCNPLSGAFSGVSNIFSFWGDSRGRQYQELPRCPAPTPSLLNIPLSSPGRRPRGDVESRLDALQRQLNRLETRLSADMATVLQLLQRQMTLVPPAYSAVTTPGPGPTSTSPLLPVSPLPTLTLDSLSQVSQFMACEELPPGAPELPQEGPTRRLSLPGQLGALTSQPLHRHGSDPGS

IC50 [2] [nM] | logD [3] | IC50 [4] [nM] | IC50 [5] [nM] | Ki [7] [nM] | Compound | Activity [1] [%] | Ki [6] [nM]
> 10000 | 1.33 | 2.9 | 20 |  | O=C(O)C1(CNc2ccc(-c3ccc(-c4nc5cc(Cl)ccc5[nH]4)cn3)cn2)CC1 | 0 | 12100
> 2000 |  | 1.7 | 2.6 |  | O=C(O)C[C@H]1CC[C@@H](Oc2ccc(-c3ccc(-c4nc5cc(F)c(F)cc5[nH]4)cn3)cn2)CC1 |  | 19000
> 10000 | 1.16 | 5.3 | 36 |  | O=C(O)C1(COc2ccc(-c3ccc(-c4nc5cc(Cl)ccc5[nH]4)cn3)cn2)COC1 | 87 | 6540
> 10000 |  |  | 78 |  | COc1ccc2[nH]c(-c3ccc(N4CCC(O[C@H]5CC[C@H](CC(=O)O)CC5)CC4)nc3)nc2n1 |  | 20500
> 2000 |  | 1.5 | 2.8 |  | O=C(O)[C@H]1CC[C@@H](Oc2ccc(-c3ccc(-c4nc5cc(Cl)ccc5[nH]4)cn3)cn2)CC1 | 144 | 5390
> 2000 | 1.56 | 4.5 | 33 |  | CC1(C)CN(c2ccc(-c3ccc(-c4nc5cc(Cl)ccc5[nH]4)cn3)cn2)CCC1CC(=O)O (racemic) | 66 | 1740
> 2000 | 1.29 | 22 | 247 |  | O=C(O)C1CC(Nc2ccc(-c3ccc(-c4nc5cc(Cl)ccc5[nH]4)cn3)cn2)C1 (racemic) |  | > 60000
> 2000 | 1.43 | 4.5 | 36 |  | CC1(C(=O)O)CCCN(c2ccc(-c3ccc(-c4nc5cc(Cl)ccc5[nH]4)cn3)cn2)C1 (racemic) | 63 | 1980
 |  | 1330 |  |  | FC(F)(F)c1ccc2[nH]c(-c3ccc(-c4ccccc4)cc3)nc2c1 |  | 2310
1720 | 1.24 | 1.7 | 5 |  | O=C(O)C1(COc2ccc(-c3ccc(-c4nc5cc(Cl)ccc5[nH]4)cn3)cn2)CCC1 | 89 | 20000
 | 2.08 |  |  |  | O=C(O)C[C@H]1CC[C@H](c2ccc(-c3ccc(-c4nc5cc(Cl)ccc5[nH]4)cc3)cc2)CC1 |  | 
> 10000 |  | 38 |  |  | N#Cc1ccc(-c2ccc(-c3nc4cc(C(F)(F)F)ccc4[nH]3)cc2)cn1 |  | > 60000
 |  | 451 |  |  | Oc1ccc(-c2ccc(-c3nc4cc(C(F)(F)F)ccc4[nH]3)cc2)cc1 |  | 1640
> 10000 |  |  | 271 |  | O=C(O)C[C@H]1CC[C@H](OC2CCN(c3ccc(-c4nc5cc(Cl)cnc5[nH]4)cn3)CC2)CC1 |  | 
> 2000 | 1.16 | 3.5 | 24 |  | O=C(O)C1CC(Oc2ccc(-c3ccc(-c4nc5cc(Cl)ccc5[nH]4)cn3)cn2)C1 (racemic) | 54 | 20200
> 2000 | 1.37 | 5.4 | 48 |  | O=C(O)C1CCC(Nc2ccc(-c3ccc(-c4nc5cc(Cl)ccc5[nH]4)cn3)cn2)CC1 (racemic) | 70 | 3750
 |  |  | 1.5 |  | O=C(O)C[C@H]1CC[C@@H](Oc2ccc(-c3ccc(-c4nc5cc(C(F)(F)F)ccc5[nH]4)cn3)cn2)CC1 |  | 4100
2720 |  | 70 |  |  | CN1CCN(c2ccc(-c3ccc(-c4nc5cc(C(F)(F)F)ccc5[nH]4)cc3)cn2)CC1 |  | 426
1320 |  | 65 |  |  | FC(F)(F)c1ccc2[nH]c(-c3ccc(-c4ccc(N5CCOCC5)nc4)cc3)nc2c1 |  | 13000

IC50 [2] [nM] | logD [3] | IC50 [4] [nM] | IC50 [5] [nM] | Ki [7] [nM] | Compound | Activity [1] [%] | Ki [6] [nM]
 | 2.31 |  | 1.8 |  | O=C(O)C[C@H]1CC[C@H](c2ccc(-c3ccc(-c4nc5cc(C(F)(F)F)ccc5[nH]4)cc3)cc2)CC1 |  | 
1650 | 1.35 | 3.1 | 11 |  | O=C(O)C1(COc2ccc(-c3ccc(-c4nc5cc(Cl)ccc5[nH]4)cn3)cn2)CC1 | 50 | 10800
> 10000 | 1.3 | 9.6 | 84 |  | O=C(O)c1ccc(CNc2ccc(-c3ccc(-c4nc5cc(Cl)ccc5[nH]4)cn3)cn2)cc1 |  | 11900
1630 |  | 3.2 | 5.9 |  | O=C(O)C[C@H]1CC[C@@H](Oc2ccc(-c3ccc(-c4nc5cc(Cl)cnc5[nH]4)cn3)cn2)CC1 |  | 8600
1970 | 1.39 | 2.6 | 6.3 |  | O=C(O)[C@H]1CC[C@H](Oc2ccc(-c3ccc(-c4nc5cc(Cl)ccc5[nH]4)cn3)cn2)CC1 | 83 | 3520
 |  |  | 1.7 |  | O=C(O)C[C@H]1CC[C@@H](Oc2ccc(-c3ccc(-c4nc5cc(Cl)ccc5[nH]4)cn3)cn2)CC1 |  | 3000
 |  |  | 2.3 |  | O=C(O)C[C@H]1CC[C@@H](Oc2ccc(-c3ccc(-c4nc5c(F)cc(F)cc5[nH]4)cn3)cn2)CC1 |  | 3800
> 10000 |  |  |  | > 10000 | O=C(O)[C@H]1CC[C@@H](OC2CCN(c3ccc(-c4nc5cc(F)ccc5[nH]4)cn3)CC2)CC1 |  | 
1400 |  | 98 |  |  | N#Cc1ccc(-c2ccc(-c3nc4cc(C(F)(F)F)ccc4[nH]3)cc2)cc1 |  | 616
1350 |  | 66 |  |  | CN1CCN(c2ccc(-c3ccc(-c4nc5cc(C(F)(F)F)ccc5[nH]4)cc3)cc2)CC1 |  | 820
> 10000 |  |  | 528 |  | N#Cc1ccc2[nH]c(-c3ccc(N4CCC(O[C@H]5CC[C@H](CC(=O)O)CC5)CC4)nc3)nc2c1 |  | 3000
> 10000 | 1.51 | 4.2 | 21 |  | O=C(O)C1CCCCC1Nc1ccc(-c2ccc(-c3nc4cc(Cl)ccc4[nH]3)cn2)cn1 (racemic) | 0 | 3560
971 | 1.44 | 0.7 | 1.4 |  | CC(C)(COc1ccc(-c2ccc(-c3nc4cc(Cl)ccc4[nH]3)cn2)cn1)C(=O)O |  | 8140
 |  |  | 1910 |  | Cc1ccc2[nH]c(-c3ccc(N4CCC(O[C@H]5CC[C@H](CC(=O)O)CC5)CC4)nc3)nc2n1 |  | 
> 2000 | 1.48 | 10.2 | 108 |  | O=C(O)CC1CCN(c2ccc(-c3ccc(-c4nc5cc(Cl)ccc5[nH]4)cn3)cn2)CC1 | 62 | 5220
> 10000 |  |  |  | > 10000 | O=C(O)C1CCC2(CCN(c3ccc(-c4nc5cc(C(F)(F)F)ccc5[nH]4)cn3)CC2)OC1 (racemic) |  | 
> 2000 | 1.19 | 3.6 | 30 |  | O=C(O)C1CC1COc1ccc(-c2ccc(-c3nc4cc(Cl)ccc4[nH]3)cn2)cn1 (racemic) | 91 | 19000
 |  | 127 |  |  | FC(F)(F)c1ccc2[nH]c(-c3ccc(-c4cccnc4)cc3)nc2c1 |  | 1430

Compound | IC50 [2] [nM] | logD [3] | IC50 [4] [nM] | IC50 [5] [nM] | Ki [7] [nM] | Activity [1] [%] | Ki [6] [nM]
O=C(O)C[C@H]1CC[C@H](OC2CCN(c3ccc(-c4nc5cc(C(F)(F)F)cnc5[nH]4)cn3)CC2)CC1 | > 10000 |  | 23.6 | 125 |  |  | 12000
